Assay results taken from patent US11279728B2, “Broad spectrum viral inhibitor” (Albert Einstein College of Medicine, priority 2017, dated 2022).
“Also recorded” adds a separate entry of the source.

T1: Rattus norvegicus (residues 51-361) viperin (Rvip) (Rattus norvegicus, UniProt O70600)
T1 sequence (O70600 51-360 limits assumed): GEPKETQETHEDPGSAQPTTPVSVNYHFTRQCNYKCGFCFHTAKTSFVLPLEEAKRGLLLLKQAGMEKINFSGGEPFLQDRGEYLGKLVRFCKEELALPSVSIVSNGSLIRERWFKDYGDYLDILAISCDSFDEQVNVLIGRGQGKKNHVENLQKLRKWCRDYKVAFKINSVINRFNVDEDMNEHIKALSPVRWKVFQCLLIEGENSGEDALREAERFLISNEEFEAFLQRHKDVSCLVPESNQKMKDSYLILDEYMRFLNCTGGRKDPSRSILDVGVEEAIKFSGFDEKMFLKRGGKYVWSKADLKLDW


Assays:
HCV RdRp = HCV RdRp (Hepatitis C virus genotype 1a, UniProt P27958); assay: HCV RdRp inhibition by ddhCTP
poliovirus (PV) RdRp = poliovirus (PV) RdRp (Poliovirus type 1, UniProt P03300); assay type: biochemical
Zika virus (ZIKV) RdRp = Zika virus (ZIKV) RdRp (Zika virus, UniProt Q32ZE1); assay: ZIKV RdRp inhibition by ddhCTP; assay type: biochemical
[1] = test system: RdRp from human rhinovirus type C (HRV-C); assay: HRV-C RdRp incorporation and inhibition; assay type: biochemical; conditions: for utilization by HRV-C RdRp: direct-incorporation experiments; for inhibition of HRV-C RdRp: in the presence of other rNTPs
Dengue virus (DV) RdRp = Dengue virus (DV) RdRp (Dengue virus type 2, UniProt P29990); assay: DV RdRp primed-template (primer extension) assay; assay type: biochemical; conditions: for incorporation by DV RdRp on addition to the extended primer: direct incorporation, primed-template assay; for inhibition of DV RdRp-catalyzed production of full-length RNA: in competition with natural ribonucleotides, increasing concentrations (1, 10, 100 and 300 μM); for chain termination of DV RdRp-catalyzed RNA synthesis: once incorporated, only a 16-nt product (n+1)
Description: FIG. 6(A)-6(B): DV RdRp-catalyzed RNA synthesis is inhibited by ddhCTP by a chain termination mechanism. A. Schematic of primer extension assay for evaluating DV RdRp activity. Elongation complexes are first assembled with a trinucleotide primer, 5′-pGGC (SEQ ID NO:1), and 20-nt RNA template (SEQ ID NO:2) in the presence of ATP and GTP to elongate the trinucleotide primer (extended primer; SEQ ID NO:3)) and position the enzyme on the template (SEQ ID NO:2) such that guanosine is in the first templating position (underlined). In the presence of CTP and UTP, DV RdRp catalyzes RNA synthesis to the end of the template (SEQ ID NO:5). […] B. Increasing concentrations of ddhCTP (1, 10, 100 and 300 μM) inhibits DV RdRp-catalyzed RNA synthesis. Reaction products resolved by denaturing PAGE from DV RdRp-catalyzed nucleoside incorporation in the presence of increasing concentrations of either ddhCTP or 3′-dCTP. In the absence of ddhCTP and 3′-dCTP, DV RdRp efficiently catalyzes RNA synthesis to the end of the template creating a 20-nt RNA product (n+5, lanes 2 and 8).
Molecular target for ddhCTP: Viperin is induced by both DNA and RNA viruses (8,44-51). However, the presence of a 2′-OH on ddhCTP should almost certainly preclude efficient utilization by DNA polymerases, viral or cellular. (52) In contrast, 3′-deoxyribonucleotides are well known inhibitors of viral RNA-dependent RNA polymerases (RdRps)(53). Because Dengue virus (DV) and other members of the Flavivirus family are known to be sensitive to viperin, we used the DV RdRp as our model to examine the effect of ddhCTP on RdRp activity. First, it was asked if ddhCTP is a substrate for DV RdRp. To do so, a previously described primed-template assay was used. (54) A trinucleotide is used to prime RNA synthesis in the presence of two ^32P-labeled rNTPs, producing a 15-nt product that is referred to here as the extended primer. […] Addition of UTP to the CMP-incorporated RNA led to further extension to the end of template. […] A more stringent test of chain terminator effectiveness is whether it can directly compete with natural ribonucleotides. […] The reduced efficacy of ddhCTP must be caused by the double bond between the 3′ and 4′ positions, and the corresponding impact on the detailed ribose conformation, as this is the only difference between ddhCTP and 3′-dCTP. The phylogeny of viral RdRp genes classifies these enzymes into three supergroups (55), with Flaviviral RdRps belonging to supergroup II. To determine if the observations with DV RdRp extend to other supergroups, we evaluated a member of supergroup I. Specifically, the RdRp from human rhinovirus type C (HRV-C) was used, a member of the Picornavirus family. […] However, in the presence of other rNTPs, HRV-C RdRp was not inhibited by ddhCTP, even though it was inhibited by 3′-dCTP.
Addition of UTP to the CMP-incorporated RNA, as expected, led to further extension to the end of template.

[2] = target: T1, Rattus norvegicus (residues 51-361) viperin (Rvip); assay: In vitro characterization of viperin (Rvip) activity: 5′dA formation / ddhCTP production; conditions: 50 μM Rvip, 2 mM SAM, 1 mM nucleotide, 5 mM dithionite, 4 min
[3] = test system: ZIKV (MR766, PRVABC59, R103451); assay: ZIKV replication and release from Vero cells
Vero cells = assay: Vero cell viability (ddhC cytotoxicity); assay type: cell-based; conditions: incubation with 1 mM ddhC
[4] = substrate: Nc1ccn([C@@H]2O[C@H](COP(=O)(O)OP(=O)(O)OP(=O)(O)O)[C@@H](O)[C@H]2O)c(=O)n1; assay: purified protein, by the assay type; conditions: other: CTP as substrate of Rvip, 37.0 °C

Chain of Dengue virus (DV) RdRp (P29990 2492-3391 limits assumed): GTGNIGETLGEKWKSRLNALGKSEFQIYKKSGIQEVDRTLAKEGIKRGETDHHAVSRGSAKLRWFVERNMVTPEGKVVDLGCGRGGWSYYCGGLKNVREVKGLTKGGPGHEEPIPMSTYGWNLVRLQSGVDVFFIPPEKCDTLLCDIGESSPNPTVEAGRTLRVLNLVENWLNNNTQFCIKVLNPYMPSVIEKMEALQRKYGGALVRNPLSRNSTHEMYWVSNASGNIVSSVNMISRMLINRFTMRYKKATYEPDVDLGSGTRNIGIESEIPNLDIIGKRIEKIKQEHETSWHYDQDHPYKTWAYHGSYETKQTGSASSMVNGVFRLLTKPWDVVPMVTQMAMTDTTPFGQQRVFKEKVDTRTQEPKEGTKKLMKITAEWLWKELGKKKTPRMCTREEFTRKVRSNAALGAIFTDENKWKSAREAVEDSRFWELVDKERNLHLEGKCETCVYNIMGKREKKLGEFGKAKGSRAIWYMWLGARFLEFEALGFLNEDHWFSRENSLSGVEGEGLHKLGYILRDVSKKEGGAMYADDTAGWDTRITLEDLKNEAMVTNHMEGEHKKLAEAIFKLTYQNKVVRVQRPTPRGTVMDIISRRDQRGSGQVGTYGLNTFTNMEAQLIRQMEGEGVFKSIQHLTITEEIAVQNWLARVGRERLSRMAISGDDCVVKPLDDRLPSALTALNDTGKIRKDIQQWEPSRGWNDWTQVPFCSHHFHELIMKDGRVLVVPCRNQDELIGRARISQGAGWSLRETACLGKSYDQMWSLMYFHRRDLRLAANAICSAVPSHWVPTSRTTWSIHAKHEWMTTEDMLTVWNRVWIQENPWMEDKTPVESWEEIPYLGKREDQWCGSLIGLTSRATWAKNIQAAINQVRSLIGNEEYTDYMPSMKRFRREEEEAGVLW
Chain of poliovirus (PV) RdRp (P03300 1749-2209 limits assumed): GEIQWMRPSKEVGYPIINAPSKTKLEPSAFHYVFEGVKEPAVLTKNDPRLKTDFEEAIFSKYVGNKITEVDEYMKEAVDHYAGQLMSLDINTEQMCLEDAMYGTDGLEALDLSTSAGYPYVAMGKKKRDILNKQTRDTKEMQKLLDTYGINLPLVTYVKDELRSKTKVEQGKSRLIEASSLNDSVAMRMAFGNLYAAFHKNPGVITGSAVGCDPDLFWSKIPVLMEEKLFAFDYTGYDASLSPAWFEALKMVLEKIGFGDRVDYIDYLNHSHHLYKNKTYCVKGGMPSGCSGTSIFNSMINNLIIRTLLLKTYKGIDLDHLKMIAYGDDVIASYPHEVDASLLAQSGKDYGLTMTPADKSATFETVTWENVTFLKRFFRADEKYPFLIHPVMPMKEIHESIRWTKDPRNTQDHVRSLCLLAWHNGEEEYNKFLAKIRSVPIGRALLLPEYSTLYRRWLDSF
Chain of HCV RdRp (P27958 2421-3011): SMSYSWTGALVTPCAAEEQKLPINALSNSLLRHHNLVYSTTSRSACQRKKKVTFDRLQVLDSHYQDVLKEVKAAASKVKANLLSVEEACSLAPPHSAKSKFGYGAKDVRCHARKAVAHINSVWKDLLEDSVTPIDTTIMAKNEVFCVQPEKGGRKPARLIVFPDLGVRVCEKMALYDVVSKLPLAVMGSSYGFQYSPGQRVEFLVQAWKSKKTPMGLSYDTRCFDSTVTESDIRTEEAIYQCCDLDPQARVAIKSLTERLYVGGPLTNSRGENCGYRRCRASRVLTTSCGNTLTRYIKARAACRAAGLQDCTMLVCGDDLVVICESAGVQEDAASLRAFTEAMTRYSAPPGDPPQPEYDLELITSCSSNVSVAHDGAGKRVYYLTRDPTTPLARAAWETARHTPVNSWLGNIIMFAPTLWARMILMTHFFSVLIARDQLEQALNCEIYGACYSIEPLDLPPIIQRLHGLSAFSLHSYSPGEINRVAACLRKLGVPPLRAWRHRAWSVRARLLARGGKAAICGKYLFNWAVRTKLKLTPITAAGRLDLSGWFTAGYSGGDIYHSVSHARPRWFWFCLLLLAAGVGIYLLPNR
Chain of Zika virus (ZIKV) RdRp (Q32ZE1 2517-3419): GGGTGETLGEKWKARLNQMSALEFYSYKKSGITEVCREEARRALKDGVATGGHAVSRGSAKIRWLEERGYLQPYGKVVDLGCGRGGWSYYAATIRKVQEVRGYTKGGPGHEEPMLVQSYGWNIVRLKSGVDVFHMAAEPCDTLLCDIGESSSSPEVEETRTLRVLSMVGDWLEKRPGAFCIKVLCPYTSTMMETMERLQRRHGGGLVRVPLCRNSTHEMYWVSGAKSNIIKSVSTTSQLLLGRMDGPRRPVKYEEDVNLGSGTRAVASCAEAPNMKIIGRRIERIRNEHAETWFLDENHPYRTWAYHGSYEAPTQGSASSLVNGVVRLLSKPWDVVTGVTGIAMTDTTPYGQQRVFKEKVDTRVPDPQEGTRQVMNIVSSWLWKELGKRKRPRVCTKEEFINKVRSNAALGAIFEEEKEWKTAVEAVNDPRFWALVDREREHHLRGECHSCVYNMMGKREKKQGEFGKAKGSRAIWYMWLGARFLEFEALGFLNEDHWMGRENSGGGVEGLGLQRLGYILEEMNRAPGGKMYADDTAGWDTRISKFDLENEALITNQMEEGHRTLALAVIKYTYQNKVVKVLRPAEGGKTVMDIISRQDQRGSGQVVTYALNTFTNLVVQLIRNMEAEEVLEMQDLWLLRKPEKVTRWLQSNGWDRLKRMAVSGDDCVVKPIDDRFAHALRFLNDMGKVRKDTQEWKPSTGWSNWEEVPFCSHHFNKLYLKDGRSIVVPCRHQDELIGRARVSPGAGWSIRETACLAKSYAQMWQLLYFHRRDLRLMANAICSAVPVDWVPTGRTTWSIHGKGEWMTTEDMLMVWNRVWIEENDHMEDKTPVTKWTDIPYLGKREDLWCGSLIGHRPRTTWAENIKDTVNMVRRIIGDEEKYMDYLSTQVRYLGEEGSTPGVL

Molecule | inhibition of PV RdRp (poliovirus (PV) RdRp) | utilization by HRV-C RdRp [1] | inhibition of HRV-C RdRp [1] | incorporation by DV RdRp on addition to the extended primer (Dengue virus (DV) RdRp) | inhibition of DV RdRp-catalyzed production of full-length RNA (Dengue virus (DV) RdRp) | chain termination of DV RdRp-catalyzed RNA synthesis (Dengue virus (DV) RdRp) | other results
Nc1ccn([C@@H]2OC(COP(=O)(O)OP(=O)(O)OP(=O)(O)O)=C[C@@H]2O)c(=O)n1 (stereo in doubt) [ddhCTP, 3′-deoxy-3′,4′-didehydro-cytidine triphosphate] | poorly inhibited | utilization | not inhibited; also recorded: poorly inhibited | led to incorporation | inhibits; also recorded: inhibited production of full-length RNA | terminate RNA synthesis | inhibition by ddhCTP utilization and chain termination (HCV RdRp): susceptible to inhibition; inhibition by ddhCTP utilization and chain termination (Zika virus (ZIKV) RdRp): susceptible to inhibition
Nc1ccn([C@@H]2O[C@H](COP(=O)(O)OP(=O)(O)OP(=O)(O)O)C[C@H]2O)c(=O)n1 [3′-dCTP, reference compound] | inhibited | utilization | inhibited | led to incorporation | inhibited production of full-length RNA | terminate RNA synthesis | efficacy of inhibition of full-length RNA, 3′-dCTP compared with ddhCTP (Dengue virus (DV) RdRp; compare lane 10 to lane 4 in FIG. 6B): greater efficacy than ddhCTP
Nc1ccn([C@@H]2O[C@H](COP(=O)(O)OP(=O)(O)OP(=O)(O)O)[C@@H](O)[C@H]2O)c(=O)n1 [CTP, cytidine triphosphate] | – | – | – | – | – | – | activation of 5′dA production relative to protein alone [2]: 30 fold
Nc1ccn([C@@H]2OC(CO)=C[C@H]2O)c(=O)n1 [ddhC, 3′-deoxy-3′,4′-didehydro-cytidine] | – | – | – | – | – | – | reduction in virus titer ([3]; ZIKV MR766, MOI of 0.1, all time points, Vero cells): 50-200 fold; reduction in virus titer ([3]; ZIKV MR766, MOI of 1.0, Vero cells): 5-50 fold; sensitivity to ddhC treatment ([3]; ZIKV PRVABC59 (Puerto Rico), Vero cells): analogous sensitivities; sensitivity to ddhC treatment ([3]; ZIKV R103451 (Honduras), Vero cells): analogous sensitivities; Vero cell viability (Vero cells): did not alter Vero cell viability
Rattus norvegicus (residues 51-361) viperin (Rvip) (Rattus norvegicus) (protein) GEPKETQETHEDPGSAQPTTPVSVNYHFTRQCNYKCGFCFHTAKTSFVLPLEEAKRGLLLLKQAGMEKINFSGGEPFLQDRGEYLGKLVRFCKEELALPSVSIVSNGSLIRERWFKDYGDYLDILAISCDSFDEQVNVLIGRGQGKKNHVENLQKLRKWCRDYKVAFKINSVINRFNVDEDMNEHIKALSPVRWKVFQCLLIEGENSGEDALREAERFLISNEEFEAFLQRHKDVSCLVPESNQKMKDSYLILDEYMRFLNCTGGRKDPSRSILDVGVEEAIKFSGFDEKMFLKRGGKYVWSKADLKLDW | – | – | – | – | – | – | Km [4]: 183 ± 28 µM; kcat ([4]; b22 prints minutes-1): 0.185 ± 0.007 min⁻¹
